Legend:
[1] = In vivo biodistribution studies (Example 5); parameters: species or system C3H/hej mice; settings: i.v., 2-60 min
Experimental: The stability of novel compound [^18F]11 and known compound [^125I]14 in plasma and liver was measured over time following administration in mice. [^18F]11 was injected intravenously into tumor-bearing mice and its tissue distribution was measured in selected tissues at 2, 15 and 60 min after injection. [^125I]14 was injected intravenously into non-tumour bearing mice and its tissue distribution was measured at selected time points from 2 to 60 minutes after injection. Furthermore, the in vivo metabolic stability of the radiotracer was determined from plasma and liver samples and, for [^18F]11, in urine samples.
The radiation-induced murine fibrosarcoma (RIF-1) tumour cells^20 were maintained in RPMI 1640 medium (Invitrogen Ltd, Paisley, UK) supplemented with 10% fetal calf serum (BioWhittaker Europe Ltd, Verviers, Belgium), 2 mM L-glutamine, 100 U/mL penicillin, 100 μg/mL streptomycin and 0.25 μg/mL fungizone (Gibco, UK) at 37° C. in a humidified incubator with 5% CO2. All animal work was done by licensed investigators in accordance with the United Kingdom's “Guidance on the Operation of Animals (Scientific Procedures) Act 1986” (HMSO, London, United Kingdom, 1990) and in full compliance with government regulations and guidelines on the welfare of animals in experimental neoplasia^21. Tumors were established in mice by subcutaneous injection of 5×10^5 cells on the back of male C3H/hej mice (Harlan, Bicester, Oxfordshire, UK). Tumour growth was monitored every two days using electronic callipers, and tumor volume estimated using the equation (π/6)×L×W×D (L=length, W=width and D=depth). Animals were selected for biodistribution studies of [^18F]11 when the tumors reached ˜100-150 mm^3; biodistribution of [^125I]14 was done in non-tumor-bearing mice.
Mice were injected intravenously via the lateral vein with 0.08-0.13 mL of radioactivity (˜0.37 MBq of [^125I]14 or 3.7 MBq of [^18F]11) dissolved in phosphate buffered saline. At selected times after injection (2-60 min) mice were sacrificed by exsanguination via cardiac puncture under general anesthesia (isofluorane inhalation). Aliquots of heparinised blood were rapidly centrifuged (2000 g for 5 minutes) to obtain plasma. The radioactivity contained in tissues was determined by gamma-counting on a Cobra II Auto-Gamma counter (Packard Instruments, Meriden, Conn., USA) and expressed as a percentage of injected dose per gram of tissue (% ID/g). A minimum of three mice was used for each time point. All animals were treatment-naïve.

RIF-1 xenograft = test: In vivo [^18F]11 biodistribution and PET imaging, RIF-1 xenograft; parameters: species or system mice; settings: for 60 min biodistribution, Bone / 60 min biodistribution, Kidney / 60 min biodistribution, L. Intestine / 60 min biodistribution, Liver / 60 min biodistribution, Lung / 60 min biodistribution, Muscle / 60 min biodistribution, S. Intestine / 60 min biodistribution, Spleen / 60 min biodistribution, Tumour: RIF-1
Description: In vivo tumour models were established by subcutaneous injection of PEO1/4 (10×10^6 cells, with v/v matrigel, BD Biosciences, Oxford, UK), RIF-1 (5×10^5 cells) and LNM35 (1×10^6 cells) on the back of 6-8 weeks old female nu/nu-BALB/c or male C3H/hej mice (Harlan, Bicester, Oxfordshire, UK). Tumour growth was monitored every two days using electronic callipers, and tumour volume estimated using (π/6)×L×W×D (L=length, W=width and D=depth). All animal work was done by licensed investigators in accordance with the United Kingdom's “Guidance on the Operation of Animals (Scientific Procedures) Act 1986” (HMSO, London, United Kingdom, 1990) and in full compliance with government regulations and guidelines on the welfare of animals in experimental neoplasia.
For biodistribution studies, tumour-bearing mice were treated with 10 mg/kg cisplatin or vehicle for 24 h, anesthetized with isofluorane/O2/N2O and injected i.v. in the lateral tail vein with ˜100 μCi [^18F]11 for the indicated time. The different tissues were removed, weighted and placed in counting tubes for immediate Fluorine-18 radioactivity counting.
Tumour-bearing mice treated with Cisplatin (10 mg/kg for 24 h) or vehicle were scanned on a dedicated small animal PET scanner (quad-HIDAC; Oxford Positron Systems, Weston-on-the-Green, United Kingdom). Anesthetized animals were placed within a thermostatically controlled bed and positioned prone within the scanner. The bed was calibrated to provide a mouse rectal temperature of ˜37° C. A bolus injection of [^18F]11 (˜100 μCi) was given intravenously (i.v.) via the tail vein cannula and scanning commenced. Dynamic emission scans were acquired in list-mode format over 60 minutes. The acquired data were then sorted into 0.5-mm sinogram bins and 19 time frames (0.5×0.5×0.5 mm voxels; 4×15, 4×60, and 11×300 seconds) for image reconstruction, which was done by filtered back projection using a two-dimensional Hamming filter (cutoff 0.6). The image data-sets obtained were transferred to a SUN workstation (Ultra 10; SUN Microsystems, Santa Clara, Calif.) and visualized using the Analyze software (version 6.0; Biomedical Imaging Resource, Mayo Clinic, Rochester, Minn.). Cumulative images of the dynamic data composed of 0 to 1 minute after injection and 30 to 60 minutes after injection were used for visualization of radiotracer uptake and to define the regions of interest (ROI). The count densities were averaged for each ROI at each of the 19 time points to obtain a time versus radioactivity curve (TAC) for the ROIs. Tumour TAC was normalized to that of heart at each of the time points to obtain the normalized uptake value (NUV). The [^18F]9 data from […] were used as internal input function for normalizing tumour data. […] FRT is a useful variable in that it indicates the proportion of radiotracer delivered to the tumour that is retained. It therefore normalizes tumor [^18F]9 uptake to delivery.
RIF-1 tumor was treated with vehicle (50% DMSO) or CDDP (10 mg/kg single dose). The [^18F]-derived radioactivity levels at 60 min post radiotracer injection were analysed and expressed as a ratio to that of blood. […] 1.5-fold increase in uptake of [^18F]11 for treated mice over vehicle treated mice. Data are mean±SEM and n=8 mice per group.

In the case of `O=C1C(=O)N(Cc2cn(CC[18F])nn2)c2ccc(S(=O)(=O)N3CCC[C@H]3COc3ccc(F)cc3F)cc21` [[^18F]11, (S)-1-((1-(2-Fluoroethyl)-1H-[1,2,3]-triazol-4-yl)methyl)-5-(2(2,4-difluorophenoxymethyl)-pyrrolidine-1-sulfonyl)isatin], the Bone uptake ([1]; RIF-1 tumor-bearing mice) was “low”, the “uptake in untreated tumors, heart and brain” value ([1]; RIF-1 tumor-bearing mice) was “low” and the “tissue distribution and elimination” value ([1]; mice) was “distributed rapidly to tissues and was also rapidly eliminated”. The “60 min biodistribution, Bone” value (RIF-1 xenograft; CDDP treated) was 1.78 ± 1.72, the “60 min biodistribution, Bone” value (RIF-1 xenograft; Control) was 1.06 ± 0.49 and the “PET image: uptake in the tumour” value (RIF-1 xenograft; CDDP-treated mouse, RIF-1 xenograft, 30-60 min) was “significant uptake”. For the same compound, the “60 min biodistribution, Kidney” value (RIF-1 xenograft; CDDP treated) was 5.50 ± 2.59, the “60 min biodistribution, Kidney” value (RIF-1 xenograft; Control) was 8.49 ± 2.00 and the “60 min biodistribution, L. Intestine” value (RIF-1 xenograft; CDDP treated) was 2.88 ± 1.52. For the same compound, the “60 min biodistribution, L. Intestine” value (RIF-1 xenograft; Control) was 2.66 ± 0.67, the “60 min biodistribution, Liver” value (RIF-1 xenograft; CDDP treated) was 10.58 ± 4.64 and the “60 min biodistribution, Liver” value (RIF-1 xenograft; Control) was 11.36 ± 2.39. For the same compound, the “60 min biodistribution, Lung” value (RIF-1 xenograft; CDDP treated) was 3.23 ± 0.43, the “60 min biodistribution, Lung” value (RIF-1 xenograft; Control) was 4.47 ± 1.00 and the “60 min biodistribution, Muscle” value (RIF-1 xenograft; CDDP treated) was 1.09 ± 0.54. The “60 min biodistribution, Muscle” value (RIF-1 xenograft; Control) was 1.76 ± 1.33, the “increase in tumour uptake (ratio to blood), treated over vehicle treated mice” value (RIF-1 xenograft; RIF-1 tumour, CDDP 10 mg/kg single dose, 60 min post injection) was roughly 1.5 fold and the “60 min biodistribution, S. Intestine” value (RIF-1 xenograft; CDDP treated) was 11.08 ± 6.00. For the same compound, the “60 min biodistribution, S. Intestine” value (RIF-1 xenograft; Control) was 14.93 ± 12.68, the “60 min biodistribution, Spleen” value (RIF-1 xenograft; CDDP treated) was 1.85 ± 0.76 and the “60 min biodistribution, Spleen” value (RIF-1 xenograft; Control) was 1.85 ± 0.19. For the same compound, the “60 min biodistribution, Tumour” value (RIF-1 xenograft; CDDP treated) was 1.31 ± 1.04 and the “60 min biodistribution, Tumour” value (RIF-1 xenograft; Control) was 0.96 ± 0.10.
